Entries after “also recorded” stand apart in the source; their conditions may differ.
Experiments:
[1] = test system: glutathione peroxidase (GPx); experiment: Glutathione peroxidase activity in CYP-CIPN rat tissues; format: in vivo; conditions: 8-AG 5 mg/kg/day in drinking water
Protocol: (§1) Animals. This study employed female Harlan Sprague Dawley (HSD) rats (3-4 mo; Envigo, Indianapolis, IN) and were divided into the following groups: 1) Control, 2) Cyclophosphamide (CYP, 75 mg/kg i.p. in saline vehicle; administered on days 0, 3 and 6); 3) 8-aminoguanine (8-AG; 5 mg/kg/day in drinking water; beginning 2 weeks prior to CYP and continuing until sacrifice (day 8)). The dose of 8-AG is based on our preliminary and published experiments. […] The investigation conforms to the Guide for the Care and Use of Laboratory Animals published by the US National Institutes of Health (NIH Publication No. 85-23, revised 1996). […]
(§2) Western immunoblotting: Following the testing paradigms, rats were deeply anesthetized and tissues (e.g., epidermis, peripheral sciatic nerves, spinal cord segments (L3-L5) and dorsal root ganglia (L3-L5) were removed, and a portion of each preparation was homogenized using Lysing Matrix D in a FASTPREP® 24 instrument (MP Biomedicals, Solon, OH) in HBSS [5 mM KCl, 0.3 mM KH2PO4, 138 mM NaCl, 4 mM NaHO3, 0.3 mM Na2HCO3, 0.3 mM Na2HPO4, 5.6 mM glucose and 10 mM Hepes, pH 7.4 containing complete protease inhibitor cocktail (1 tablet/10 ml, Roche, Indianapolis, IN)] and phosphatase inhibitor cocktail (Sigma, 1:100). […] The protein concentrations of the supernatants were determined using the Pierce BCA protein assay (Thermo Scientific, Rockford, IL). […]

PGP 9.5 = PGP 9.5 expression in CYP-CIPN rat hindpaw epidermis, Western immunoblotting; format: in vivo; conditions: 8-AG 5 mg/kg/day in drinking water
Protocol: as §1, §2

Nc1nc2[nH]c(N)nc2c(=O)[nH]1 [8-AG, 8-Aminoguanine]
effect on CYP-induced increase in GPx activity ([1]; epidermis): significantly decreased; also recorded: restored values to that of a control state
effect on CYP-induced increase in GPx activity ([1]; peripheral (sciatic) nerves): normalized; also recorded: prevented
effect on CYP-induced decrease in PGP 9.5 expression (PGP 9.5): restored to control values; also recorded: normalized
